Results: ChEMBL document CHEMBL1275491, “Role of plasma proteins in pharmacokinetics of micafungin, an antifungal antibiotic, in analbuminemic rats” (Antimicrob Agents Chemother, 2008)
Starred links: 1 amine or outer side, 2 acyl side, 3 side chain; linkers in the order of their positions; H or OH if unused. Positions of bridges follow the written chain, without caps; N, C: chain ends. Non-standard residues stand in square brackets, D forms with d. Residues, ends and D or L forms follow the SMILES beside them. *: point of attachment. hTyr(3S-OH,4S-OH,3'-OSO3H) = N[C@H](C(=O)O)[C@H](O)[C@@H](O)c1ccc(O)c(OS(=O)(=O)O)c1; Orn(4R-OH,5R-OH) = O=C([C@H](C[C@@H](O)[C@@H](O)N[*:3])N[*:1])[*:2]; Pro(3S-OH,4S-Me) = C[C@H]1CN[C@H](C(=O)O)[C@H]1O; X1 = CCCCCOc1ccc(-c2cc(-c3ccc(C(=O)*)cc3)no2)cc1; Gln(3R-OH) = NC(=O)C[C@@H](O)[C@H](N)C(=O)O; Hyp = O=C(O)[C@@H]1C[C@@H](O)CN1

Assays:
[1] = Systemic clearance in analbuminemic Nagase rat plasma at 1 mg/kg, iv administered as single dose by high-performance liquid chromatography; type: ADME, organism-based; set-up: dose 1 mg/kg, route intravenous
[2] = Volume of distribution at steady state in analbuminemic Nagase rat plasma at 1 mg/kg, iv administered as single dose by high-performance liquid chromatography; type: ADME, organism-based; set-up: dose 1 mg/kg, route intravenous; settings: read-out: Vdss
[3] = Systemic clearance in Sprague-Dawley rat plasma at 1 mg/kg, iv administered as single dose by high-performance liquid chromatography; type: ADME, organism-based; set-up: dose 1 mg/kg, route intravenous
[4] = Volume of distribution at steady state in Sprague-Dawley rat plasma at 1 mg/kg, iv administered as single dose by high-performance liquid chromatography; type: ADME, organism-based; set-up: dose 1 mg/kg, route intravenous; settings: read-out: Vdss
Rattus norvegicus [5] = test: Plasma protein binding in analbuminemic Nagase rat at 1 mg/kg, iv administered as single dose by high-performance liquid chromatography; type: ADME, organism-based; set-up: dose 1 mg/kg, route intravenous; settings: in vivo
Rattus norvegicus [6] = test: Plasma protein binding in Sprague-Dawley rat at 1 mg/kg, iv administered as single dose by high-performance liquid chromatography; type: ADME, organism-based; set-up: dose 1 mg/kg, route intravenous; settings: in vivo
Albumin = Albumin (Homo sapiens, UniProt P02768); test: Binding affinity to human serum albumin in cell-free system
Rattus norvegicus [7] = test: Binding affinity to gamma globulin in rat plasma at 1 mg/kg, iv administered as single dose; type: functional
Rattus norvegicus [8] = test: Binding affinity to HDL in rat plasma at 1 mg/kg, iv administered as single dose; type: ADME, organism-based; set-up: dose 1 mg/kg, route intravenous; settings: in vivo

Albumin, sequence (P02768 whole entry): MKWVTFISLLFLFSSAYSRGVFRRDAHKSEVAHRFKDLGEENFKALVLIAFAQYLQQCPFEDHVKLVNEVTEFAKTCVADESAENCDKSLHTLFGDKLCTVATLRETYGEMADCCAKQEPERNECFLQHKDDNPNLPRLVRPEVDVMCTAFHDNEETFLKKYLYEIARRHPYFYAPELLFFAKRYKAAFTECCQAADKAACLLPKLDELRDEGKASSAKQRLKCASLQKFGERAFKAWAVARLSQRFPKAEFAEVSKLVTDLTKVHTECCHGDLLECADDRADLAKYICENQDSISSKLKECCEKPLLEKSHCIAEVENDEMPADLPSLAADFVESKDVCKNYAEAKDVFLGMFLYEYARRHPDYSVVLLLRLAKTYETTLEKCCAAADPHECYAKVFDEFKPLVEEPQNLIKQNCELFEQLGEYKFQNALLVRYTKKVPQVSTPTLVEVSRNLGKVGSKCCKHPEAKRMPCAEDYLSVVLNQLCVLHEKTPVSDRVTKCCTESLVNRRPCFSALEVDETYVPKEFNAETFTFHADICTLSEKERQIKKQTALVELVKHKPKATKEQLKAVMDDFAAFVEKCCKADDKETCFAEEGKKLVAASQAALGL

CCCCCOc1ccc(-c2cc(-c3ccc(C(=O)N[C@H]4C[C@@H](O)[C@@H](O)NC(=O)[C@@H]5[C@@H](O)[C@@H](C)CN5C(=O)[C@H]([C@H](O)CC(N)=O)NC(=O)[C@H]([C@H](O)[C@@H](O)c5ccc(O)c(OS(=O)(=O)O)c5)NC(=O)[C@@H]5C[C@@H](O)CN5C(=O)[C@H]([C@@H](C)O)NC4=O)cc3)no2)cc1 [MICAFUNGIN] (X1-[Orn(4R-OH,5R-OH)]T[Hyp][hTyr(3S-OH,4S-OH,3'-OSO3H)][Gln(3R-OH)][Pro(3S-OH,4S-Me)]; lactam 1-C)
clearance [1]: 1.2 mL/min/kg
Vd [2]: 0.52 L/kg
clearance [3]: 1.15 mL/min/kg
Vd [4]: 0.54 L/kg
Activity (Rattus norvegicus [5]): 99.8%
Activity (Rattus norvegicus [6]): 99.7%
Activity (Albumin): 99.7%
Activity (Rattus norvegicus [7]): 35.1%
Activity (Rattus norvegicus [8]): 97.4%
